Measured values as given in ChEMBL document CHEMBL3588744, “Structure-Based Optimization of Naphthyridones into Potent ATAD2 Bromodomain Inhibitors” (J Med Chem, 2015).
≈ marks a conversion by molar mass, not a printed value.

How the values were obtained:
[1] = target: Bromodomain-containing protein 4 (Homo sapiens, UniProt O60885, Y390A)
physchem = details: phosphate buffered saline, pH 7.4, solubility
Description: Solubility of the compound in phosphate buffered saline at pH 7.4 after 1 hr by CLND method

[2] = Distribution coefficient, log D of the compound at pH 7.4 by chromatographic method; format: physicochemical; details: octanol/water
[3] = target: T1, ATPase family AAA domain-containing protein 2 (Homo sapiens, UniProt Q6PL18)
T1 sequence (Q6PL18 whole entry): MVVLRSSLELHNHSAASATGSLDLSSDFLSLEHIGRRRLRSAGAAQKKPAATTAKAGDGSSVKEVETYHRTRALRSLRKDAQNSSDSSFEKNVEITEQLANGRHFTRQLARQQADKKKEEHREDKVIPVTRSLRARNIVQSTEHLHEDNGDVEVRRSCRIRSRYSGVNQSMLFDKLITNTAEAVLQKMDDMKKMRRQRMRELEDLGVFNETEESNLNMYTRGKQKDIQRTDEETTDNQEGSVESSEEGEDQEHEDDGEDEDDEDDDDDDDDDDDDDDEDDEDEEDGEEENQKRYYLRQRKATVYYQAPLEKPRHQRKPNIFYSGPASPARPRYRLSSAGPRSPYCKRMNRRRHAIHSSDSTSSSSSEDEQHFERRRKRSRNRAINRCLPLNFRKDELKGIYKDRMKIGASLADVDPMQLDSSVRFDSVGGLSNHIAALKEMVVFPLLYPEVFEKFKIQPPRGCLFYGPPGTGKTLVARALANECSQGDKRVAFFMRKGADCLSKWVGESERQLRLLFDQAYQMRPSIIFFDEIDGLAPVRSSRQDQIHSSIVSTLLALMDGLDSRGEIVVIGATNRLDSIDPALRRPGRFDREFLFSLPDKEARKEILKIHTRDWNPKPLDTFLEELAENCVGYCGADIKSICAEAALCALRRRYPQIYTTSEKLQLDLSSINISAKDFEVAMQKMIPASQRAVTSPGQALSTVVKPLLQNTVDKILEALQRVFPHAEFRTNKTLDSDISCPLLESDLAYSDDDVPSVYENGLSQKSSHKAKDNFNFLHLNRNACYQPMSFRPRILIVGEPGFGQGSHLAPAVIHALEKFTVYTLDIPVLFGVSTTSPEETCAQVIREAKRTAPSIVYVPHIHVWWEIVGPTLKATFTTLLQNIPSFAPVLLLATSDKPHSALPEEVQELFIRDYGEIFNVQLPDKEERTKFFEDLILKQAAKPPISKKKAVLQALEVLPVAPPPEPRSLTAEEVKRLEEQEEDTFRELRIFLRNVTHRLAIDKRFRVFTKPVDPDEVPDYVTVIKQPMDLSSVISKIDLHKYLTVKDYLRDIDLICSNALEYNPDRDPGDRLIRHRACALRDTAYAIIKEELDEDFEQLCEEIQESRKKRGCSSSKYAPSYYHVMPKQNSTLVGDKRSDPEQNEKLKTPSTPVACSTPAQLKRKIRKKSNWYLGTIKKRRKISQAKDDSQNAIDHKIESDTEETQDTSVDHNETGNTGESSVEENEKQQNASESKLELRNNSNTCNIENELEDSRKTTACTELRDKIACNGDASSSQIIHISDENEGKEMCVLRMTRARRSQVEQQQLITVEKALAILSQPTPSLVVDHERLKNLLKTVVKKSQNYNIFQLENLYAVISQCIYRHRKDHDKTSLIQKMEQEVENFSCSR

[4] = target: T1, ATPase family AAA domain-containing protein 2; remark: listed apart in the source
Description: Displacement of histone H4 peptide from FLAG-6His-Tev-ATAD2 (981 to 1121) (unknown origin) expressed in Escherichia coli BL21 (DE3) after 30 mins by TR-FRET analysis relative to control

[5] = Permeability across phosphatidyl choline membrane at pH 7.4 after 3 hrs by HPLC with UV detection method; format: ADME; details: not told, read-out: permeability

Cc1cc2ccnc(N[C@H]3CCNC[C@@H]3OCC3CCCCC3)c2[nH]c1=O
IC50 [1]: 12.6 µM
solubility kinetic at 1 h (physchem): 140 µM (≈ 51.9 µg/mL)
chromatographic logD [2]: 3.3

COc1cncc(-c2cnc(N[C@@H]3CCNC[C@H]3OCC3CCOCC3)c3[nH]c(=O)c(C)cc23)c1
IC50 [1]: 7.94 µM
solubility kinetic at 1 h (physchem): ≥ 418 µM
IC50 [3]: 0.316 µM
IC50 [4]: 0.251 µM
Papp at 3 h [5]: 3.35 ×10⁻⁶ cm/s

Cc1cc2ccnc(N[C@@H]3CCNC[C@H]3OC[C@H]3CC[C@H](O)CC3)c2[nH]c1=O (racemic)
IC50 [1]: 12.6 µM
solubility kinetic at 1 h (physchem): ≥ 323 µM
IC50 [4]: 5.01 µM
chromatographic logD [2]: 0.7

Cc1cc2c(-c3cccnc3)cnc(N[C@@H]3CCNC[C@H]3OCC3CCS(=O)(=O)CC3)c2[nH]c1=O
IC50 [1]: 10 µM
solubility kinetic at 1 h (physchem): ≥ 315 µM
IC50 [3]: 0.1 µM
IC50 [4]: 0.126 µM
Papp at 3 h [5]: < 0.3 ×10⁻⁶ cm/s

Cc1cc2ccnc(N[C@@H]3CCNC[C@H]3OCC3CCS(=O)(=O)CC3)c2[nH]c1=O (racemic)
IC50 [1]: 6.31 µM
solubility kinetic at 1 h (physchem): ≥ 309 µM
chromatographic logD [2]: 1

Cc1cc2ccnc(N[C@@H]3CCNC[C@H]3OCC3CCCCC3)c2[nH]c1=O
IC50 [1]: 3.98 µM
Papp at 3 h [5]: 13 ×10⁻⁶ cm/s

Cc1cc2ccnc(N[C@@H]3CCNC[C@H]3OCC3CCOCC3)c2[nH]c1=O (racemic)
IC50 [1]: 10 µM
solubility kinetic at 1 h (physchem): 298 µM (≈ 111 µg/mL)
chromatographic logD [2]: 1.7

Cc1cc2ccnc(N[C@@H]3CCNC[C@H]3OC[C@@H]3CCS(=O)(=O)C3)c2[nH]c1=O (racemic)
IC50 [1]: 12.6 µM
solubility kinetic at 1 h (physchem): ≥ 328 µM
IC50 [4]: 5.01 µM
chromatographic logD [2]: 1

Cc1cc2ccnc(N[C@@H]3CCNC[C@H]3OCC3CCCCC3)c2[nH]c1=O (racemic)
IC50 [1]: 5.01 µM
solubility kinetic at 1 h (physchem): 285 µM (≈ 106 µg/mL)
chromatographic logD [2]: 3.3

Cc1cc2ccnc(N[C@@H]3CCNC[C@H]3OCC(C)C)c2[nH]c1=O (racemic)
IC50 [1]: 6.31 µM
solubility kinetic at 1 h (physchem): ≥ 290 µM
chromatographic logD [2]: 2.3

Cc1cncc(-c2cnc(N[C@H]3CCNC[C@@H]3OCC3CCCCC3)c3[nH]c(=O)c(C)cc23)c1
solubility kinetic at 1 h (physchem): 196 µM (≈ 90.5 µg/mL)
chromatographic logD [2]: 4.2

Cc1cc2ccnc(N[C@@H]3CCNC[C@H]3OCC3CCOCC3)c2[nH]c1=O
logD [2]: 1.5
Papp at 3 h [5]: < 1 ×10⁻⁶ cm/s

CCCO[C@@H]1CNCC[C@H]1Nc1nccc2cc(C)c(=O)[nH]c12 (racemic)
IC50 [1]: 6.31 µM
solubility kinetic at 1 h (physchem): ≥ 280 µM
IC50 [4]: 25.1 µM
chromatographic logD [2]: 1.8

Cc1cc2ccnc(N[C@H]3CCNC[C@@H]3OCC3CCOCC3)c2[nH]c1=O
IC50 [1]: 12.6 µM
solubility kinetic at 1 h (physchem): ≥ 352 µM
chromatographic logD [2]: 1.5

Cc1cc2ccnc(N[C@@H]3CCNC[C@H]3OCC3CCCC3)c2[nH]c1=O (racemic)
IC50 [1]: 10 µM
solubility kinetic at 1 h (physchem): ≥ 275 µM
IC50 [4]: 7.94 µM
chromatographic logD [2]: 3.1

CO[C@@H]1CNCC[C@H]1Nc1nccc2cc(C)c(=O)[nH]c12
IC50 [1]: 6.31 µM
solubility kinetic at 1 h (physchem): ≥ 306 µM
IC50 [4]: 10 µM
chromatographic logD [2]: 0.9

Cc1cc2ccnc(N[C@@H]3CCNC[C@H]3OCC3CCCCCC3)c2[nH]c1=O (racemic)
IC50 [1]: 5.01 µM
solubility kinetic at 1 h (physchem): ≥ 316 µM
IC50 [4]: 2 µM
chromatographic logD [2]: 4

Cc1cc2ccnc(N[C@H]3CCNC[C@@H]3OCC3CCS(=O)(=O)CC3)c2[nH]c1=O
IC50 [1]: 5.01 µM
solubility kinetic at 1 h (physchem): ≥ 531 µM
chromatographic logD [2]: 1.1

Cc1cncc(-c2cnc(N[C@@H]3CCNC[C@H]3OC[C@H]3C[C@@H](C)S(=O)(=O)[C@@H](C)C3)c3[nH]c(=O)c(C)cc23)c1
IC50 [1]: 25.1 µM
solubility kinetic at 1 h (physchem): 30 µM (≈ 16.2 µg/mL)
IC50 [3]: 0.0631 µM
IC50 [4]: 0.1 µM
Papp at 3 h [5]: < 0.3 ×10⁻⁶ cm/s

Cc1cncc(-c2ccc(N[C@@H]3CCNC[C@H]3OCC3CCS(=O)(=O)CC3)c3[nH]c(=O)c(C)cc23)c1 (racemic)
solubility kinetic at 1 h (physchem): 217 µM (≈ 111 µg/mL)
Papp at 3 h [5]: < 0.3 ×10⁻⁶ cm/s

Cc1cc2ccnc(N[C@@H]3CCNC[C@H]3OCCC3CCOCC3)c2[nH]c1=O (racemic)
IC50 [1]: 25.1 µM
solubility kinetic at 1 h (physchem): ≥ 327 µM
chromatographic logD [2]: 1.5

CCc1cc2c(-c3cncc(C)c3)cnc(N[C@@H]3CCNC[C@H]3OCC3CCS(=O)(=O)CC3)c2[nH]c1=O
IC50 [1]: 10 µM
solubility kinetic at 1 h (physchem): 323 µM (≈ 170 µg/mL)
IC50 [3]: 0.0501 µM
IC50 [4]: 0.0794 µM
Papp at 3 h [5]: < 0.3 ×10⁻⁶ cm/s

Cc1cc2c(-c3cncnc3)cnc(N[C@@H]3CCNC[C@H]3OCC3CCOCC3)c2[nH]c1=O
IC50 [1]: 50.1 µM
solubility kinetic at 1 h (physchem): ≥ 414 µM
IC50 [3]: 0.794 µM
IC50 [4]: 1 µM
Papp at 3 h [5]: < 0.3 ×10⁻⁶ cm/s

CC(=O)N1CCC(CO[C@@H]2CNCC[C@H]2Nc2nccc3cc(C)c(=O)[nH]c23)CC1 (racemic)
IC50 [1]: 10 µM
solubility kinetic at 1 h (physchem): ≥ 392 µM
IC50 [4]: 7.94 µM
chromatographic logD [2]: 1.2

Cc1cncc(-c2cnc(N[C@@H]3CCNC[C@H]3OCC3CCOCC3)c3[nH]c(=O)c(C)cc23)c1
IC50 [1]: 10 µM
solubility kinetic at 1 h (physchem): 254 µM (≈ 118 µg/mL)
IC50 [3]: 0.251 µM
IC50 [4]: 0.316 µM
Papp at 3 h [5]: 3.25 ×10⁻⁶ cm/s

COc1cncc(-c2cnc(N[C@@H]3CCNC[C@H]3OCC3CCS(=O)(=O)CC3)c3[nH]c(=O)c(C)cc23)c1
IC50 [1]: 7.94 µM
solubility kinetic at 1 h (physchem): ≥ 269 µM
IC50 [3]: 0.1 µM
IC50 [4]: 0.126 µM
Papp at 3 h [5]: < 0.3 ×10⁻⁶ cm/s

Cc1cc2ccnc(N[C@@H]3CCNC[C@H]3OCC3CCS(=O)(=O)CC3)c2[nH]c1=O
IC50 [1]: 12.6 µM
Papp at 3 h [5]: < 0.65 ×10⁻⁶ cm/s

Cc1cc2c(-c3cccnc3)cnc(N[C@@H]3CCNC[C@H]3OCC3CCOCC3)c2[nH]c1=O
IC50 [1]: 6.31 µM
solubility kinetic at 1 h (physchem): ≥ 465 µM
IC50 [3]: 0.2 µM
IC50 [4]: 0.251 µM
Papp at 3 h [5]: < 0.3 ×10⁻⁶ cm/s

Cc1cc2c(-c3cncc(N)c3)cnc(N[C@@H]3CCNC[C@H]3OCC3CCCCC3)c2[nH]c1=O
solubility kinetic at 1 h (physchem): 494 µM (≈ 229 µg/mL)
chromatographic logD [2]: 2.2

Cc1cc2ccnc(N[C@@H]3CCNC[C@H]3OC(C)C)c2[nH]c1=O (racemic)
IC50 [1]: 25.1 µM
solubility kinetic at 1 h (physchem): 207 µM (≈ 65.5 µg/mL)
IC50 [4]: 63.1 µM
chromatographic logD [2]: 1.8
